# Results taken from patent publication US20250136576A1, “Heterocyclic Compounds and Uses Thereof” (ACEA Therapeutics, Inc., priority 2021, published 2025).
# Tested on: KM12-luc cells
# Assay: Cell proliferation and growth inhibition assay (CCK-8) in KM12-luc
# Type: cell-based
# Conditions: KM12-Luc, 72 h, KM12-luc cells, treated with test compounds for 72 hrs, CCK-8 viability; read-out: NTRK IC50 in KM12-luc
# Protocol: MV-4-11 and H1975 cells were obtained from the American Type Culture Collection and KM12-luc cells were obtained from JCRB Cell Bank. All cell lines were maintained at 37° C. with 5% C02, in media supplemented with 10% fetal bovine serum and penicillin (100 units/mL) and streptomycin (100 μg/mL). MV-4-11 cells were maintained in Iscove's Modified Dubecco's Medium, H1975 cells were cultured with RPMI 1640 media, and KM12-luc cells were maintained in Dulbecco's Modification of Eagle's Medium. CCK-8 reagent was obtained from Yeasen. Cell proliferation was assessed by CCK-8 assay (Yeasen) per the manufacturer's instructions. […] Cell viability was assayed by incubating the cells with CCK-8 reagent for 1-4 hrs. Absorbance was measured at OD450 using the Beckman DTX880. The data was calculated using GraphPad Prism version 6.01. The IC50 values were fitted using a non-linear regression model with a sigmoidal dose response.
row,Compound,IC50
1,"CCN(CCN(C)C)c1ccc(Nc2nc3c(c(-c4cn(C)c5ccccc45)n2)COCC3)cc1NC(C)=O [Compound 257c, N-(2-((2-(dimethylamino)ethyl)(ethyl)amino)-5-((4-(1-methyl-1H-indol-3-yl)-7,8-dihydro-5H-pyrano[4,3-d]pyrimidin-2-yl)amino)phenyl)acetamide]",> 10000 nM
2,"CCN(CCN(C)C)c1c(F)cc(Nc2nc3c(c(-c4cn(C)c5ccccc45)n2)COCC3)cc1NC(C)=O [Compound 257d, N-(2-((2-(dimethylamino)ethyl)(ethyl)amino)-3-fluoro-5-((4-(1-methyl-1H-indol-3-yl)-7,8-dihydro-5H-pyrano[4,3-d]pyrimidin-2-yl)amino)phenyl)acetamide]",> 10000 nM
3,"CC(=O)Nc1cc(Nc2nc3c(c(-c4cn(C)c5ccccc45)n2)CCO3)ccc1N(C)CCN(C)C [Compound 258a, N-(2-((2-(dimethylamino)ethyl)(methyl)amino)-5-((4-(1-methyl-1H-indol-3-yl)-5,6-dihydrofuro[2,3-d]pyrimidin-2-yl)amino)phenyl)acetamide]",> 1000 nM
4,"CC(=O)Nc1cc(Nc2nc3c(c(-c4cn(C)c5ccccc45)n2)CCO3)cc(F)c1N(C)CCN(C)C [Compound 258b, N-(2-((2-(dimethylamino)ethyl)(methyl)amino)-3-fluoro-5-((4-(1-methyl-1H-indol-3-yl)-5,6-dihydrofuro[2,3-d]pyrimidin-2-yl)amino)phenyl)acetamide]",> 1000 nM
5,"CCN(CCN(C)C)c1ccc(Nc2nc3c(c(-c4cn(C)c5ccccc45)n2)CCO3)cc1NC(C)=O [Compound 258c, N-(2-((2-(dimethylamino)ethyl)(ethyl)amino)-5-((4-(1-methyl-1H-indol-3-yl)-5,6-dihydrofuro[2,3-d]pyrimidin-2-yl)amino)phenyl)acetamide]",> 1000 nM
6,"CCN(CCN(C)C)c1c(F)cc(Nc2nc3c(c(-c4cn(C)c5ccccc45)n2)CCO3)cc1NC(C)=O [Compound 258d, N-(2-((2-(dimethylamino)ethyl)(ethyl)amino)-3-fluoro-5-((4-(1-methyl-1H-indol-3-yl)-5,6-dihydrofuro[2,3-d]pyrimidin-2-yl)amino)phenyl)acetamide]",> 1000 nM
7,"CC(=O)Nc1cc(Nc2ncc(F)c(-c3c[nH]c4ccccc34)n2)ccc1N(C)CCN(C)C [Compound 259a, N-(2-((2-(dimethylamino)ethyl)(methyl)amino)-5-((5-fluoro-4-(1H-indol-3-yl)pyrimidin-2-yl)amino)phenyl)acetamide]",65.7 nM
8,"CC(=O)Nc1cc(Nc2ncc(F)c(-c3cn(-c4ncc(F)c(-c5c[nH]c6ccccc56)n4)c4ccccc34)n2)ccc1N(C)CCN(C)C [Compound 259b, N-(2-((2-(dimethylamino)ethyl)(methyl)amino)-5-((5-fluoro-4-(1-(5-fluoro-4-(1H-indol-3-yl)pyrimidin-2-yl)-1H-indol-3-yl)pyrimidin-2-yl)amino)phenyl)acetamide]",541 nM
9,"CNc1cc(Nc2ncc(F)c(-c3c[nH]c4ccccc34)n2)ccc1N(C)CCN(C)C [Compound 260, N^1-(2-(dimethylamino)ethyl)-N^4-(5-fluoro-4-(1H-indol-3-yl)pyrimidin-2-yl)-N^1,N^2-dimethylbenzene-1,2,4-triamine]",145 nM
10,"CC(=O)Nc1cc(Nc2ncc(F)c(-c3cn(C)c4ccccc34)n2)ccc1N(C)CCN(C)C [Compound 261, N-(2-((2-(dimethylamino)ethyl)(methyl)amino)-5-((5-fluoro-4-(1-methyl-1H-indol-3-yl)pyrimidin-2-yl)amino)phenyl)acetamide]",509 nM
11,"CN(C)CCN(C)c1ccc(Nc2ncc(F)c(-c3cn(C)c4ccccc34)n2)cc1N [Compound 262, N^1-(2-(dimethylamino)ethyl)-N^4-(5-fluoro-4-(1-methyl-1H-indol-3-yl)pyrimidin-2-yl)-N-methylbenzene-1,2,4-triamine]",966 nM
12,"CNc1cc(Nc2ncc(F)c(-c3cn(C)c4ccccc34)n2)ccc1N(C)CCN(C)C [Compound 263, N^1-(2-(dimethylamino)ethyl)-N^4-(5-fluoro-4-(1-methyl-1H-indol-3-yl)pyrimidin-2-yl)-N^1,N^2-dimethylbenzene-1,2,4-triamine]",704 nM
13,"CC(=O)Nc1cc(Nc2ncc(F)c(-c3cn(C)c4cccc(F)c34)n2)ccc1N(C)CCN(C)C [Compound 264, N-(2-((2-(dimethylamino)ethyl)(methyl)amino)-5-((5-fluoro-4-(4-fluoro-1-methyl-1H-indol-3-yl)pyrimidin-2-yl)amino)phenyl)acetamide]",1040 nM
14,"CC(=O)Nc1cc(Nc2ncc(F)c(-c3cn(C)c4ccc(F)cc34)n2)ccc1N(C)CCN(C)C [Compound 265, N-(2-((2-(dimethylamino)ethyl)(methyl)amino)-5-((5-fluoro-4-(5-fluoro-1-methyl-1H-indol-3-yl)pyrimidin-2-yl)amino)phenyl)acetamide]",414 nM
15,"CC(=O)Nc1cc(Nc2ncc(F)c(-c3c[nH]c4cc(F)ccc34)n2)ccc1N(C)CCN(C)C [Compound 266, N-(2-((2-(dimethylamino)ethyl)(methyl)amino)-5-((5-fluoro-4-(6-fluoro-1H-indol-3-yl)pyrimidin-2-yl)amino)phenyl)acetamide]",764 nM
16,"CC(=O)Nc1cc(Nc2ncc(F)c(-c3cn(C)c4cc(F)ccc34)n2)ccc1N(C)CCN(C)C [Compound 267, N-(2-((2-(dimethylamino)ethyl)(methyl)amino)-5-((5-fluoro-4-(6-fluoro-1-methyl-1H-indol-3-yl)pyrimidin-2-yl)amino)phenyl)acetamide]",303 nM
17,"CC(=O)Nc1cc(Nc2ncc(F)c(-c3cn(C)c4cc(F)c(F)cc34)n2)ccc1N(C)CCN(C)C [Compound 268, N-(5-((4-(5,6-difluoro-1-methyl-1H-indol-3-yl)-5-fluoropyrimidin-2-yl)amino)-2-((2-(dimethylamino)ethyl)(methyl)amino)phenyl)acetamide]",784 nM
18,"CC(=O)Nc1cc(Nc2ncc(F)c(-c3cn(C)c4ccc(C)cc34)n2)ccc1N(C)CCN(C)C [Compound 270, N-(5-((4-(1,5-dimethyl-1H-indol-3-yl)-5-fluoropyrimidin-2-yl)amino)-2-((2-(dimethylamino)ethyl)(methyl)amino)phenyl)acetamide]",1600 nM
19,"COc1cccc2c1c(-c1nc(Nc3ccc(N(C)CCN(C)C)c(NC(C)=O)c3)ncc1F)cn2C [Compound 271, N-(2-((2-(dimethylamino)ethyl)(methyl)amino)-5-((5-fluoro-4-(4-methoxy-1-methyl-1H-indol-3-yl)pyrimidin-2-yl)amino)phenyl)acetamide]",1480 nM
20,"COc1cnc(Nc2ccc(N(C)CCN(C)C)c(NC(C)=O)c2)nc1-c1c[nH]c2ccccc12 [Compound 272a, N-(5-(4-(1H-indol-3-yl)-5-methoxypyrimidin-2-ylamino)-2-((2-(dimethylamino)ethyl)(methyl)amino)phenyl)acetamide]",41 nM

# Same assay, conditions: KM12-luc cells, treated with test compounds for 72 hrs, CCK-8 viability; read-out: NTRK IC50 in KM12-luc
row,Compound,IC50
1,"CC(=O)Nc1cc(Nc2ncc(F)c(-c3c[nH]c4ccc(C)cc34)n2)ccc1N(C)CCN(C)C [Compound 269, N—N-(2-((2-(dimethylamino)ethyl)(methyl)amino)-5-((5-fluoro-4-(5-methyl-1H-indol-3-yl)pyrimidin-2-yl)amino)phenyl)acetamide]",112 nM
